Read-outs that look alike come from different tables or passages of the source.
Assays:
[1] = 24 h; cited from earlier work
[2] = 4 h; cited from earlier work

CC(C)C[C@H](NC(=O)[C@H](CC(=O)O)NC(=O)CNC(=O)[C@H](CCCNC(=N)N)NC(=O)[C@H](CC(C)C)NC(=O)[C@H](CC(N)=O)NC(=O)[C@@H]1CCCN1C(=O)[C@@H](NC(=O)[C@H](C)NC(=O)[C@@H](N)CC(N)=O)C(C)C)C(=O)N[C@@H](CCC(N)=O)C(=O)N[C@H](C(=O)N[C@@H](CC(C)C)C(=O)N[C@@H](C)C(=O)N[C@@H](CCC(N)=O)C(=O)N[C@@H](CCCCN)C(=O)N[C@H](C(=O)N[C@@H](C)C(=O)N[C@@H](CCCNC(=N)N)C(=O)N[C@H](C(=O)O)[C@@H](C)O)C(C)C)C(C)C [Compound 13, H2N-^1NAVPNLRGDLQVLAQKVAR^20T-OH]
peptide remaining intact in rat serum (24 h): almost completely degraded
peptide remaining intact in rat serum (48 h): undetected
peptide remaining in human plasma [1]: > 75%
peptide remaining intact in mouse serum [2]: 50%

From publication PMC9316855 (Molecules, 2022)
